Laboratory results published in ChEMBL document CHEMBL1201862, “PubChem BioAssay data set” (2004).
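Five compound concentrations were applied to cells in 96-well plates for 48 hours; endpoints were derived by simple linear interpolation of the resulting dose-response curve. The concentration for 50% growth inhibition is given as GI50.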 The source made the active and inactive calls. Cut-off read from the data, not from the text of the source: active = GI50 up to about 1.1 µM and inactive = higher.

Columns and labels:
Assay in all cases: NCI-60 cell line screen, 48 h
[1] = test system: HOP-18
[2] = test system: OVCAR-5
[3] = test system: NCI-H460
[4] = test system: OVCAR-3
[5] = test system: CCRF-CEM
[6] = test system: K562
[7] = test system: HCT-116
[8] = test system: NCI-H522
[9] = test system: KM12
[10] = test system: SNB-75
[11] = test system: HCC 2998
[12] = test system: LOX IMVI
[13] = test system: DMS-273
[14] = test system: M14
[15] = test system: TK-10
[16] = test system: UACC-257
[17] = test system: SK-MEL-5
[18] = test system: DMS-114
[19] = test system: NCI-H226
[20] = test system: OVCAR-4
[21] = test system: OVCAR-8
[22] = test system: SW-620
[23] = test system: SK-MEL-2
[24] = test system: DLD-1
[25] = test system: SN12C
[26] = test system: COLO 205
[27] = test system: SF-295
[28] = test system: XF498
[29] = test system: SR
[30] = test system: CAKI-1
[31] = test system: RPMI-8226
[32] = test system: SF-539
[33] = test system: SK-MEL-28
[34] = test system: SNB-19
[35] = test system: HL-60
[36] = test system: Malme-3M
[37] = test system: SNB-78
[38] = test system: HOP-62
[39] = test system: SF-268
[40] = test system: EKVX
[41] = test system: MOLT-4
[42] = test system: M19-MEL
[43] = test system: A549
[44] = test system: ACHN
[45] = test system: 786-0
[46] = test system: HT-29
[47] = test system: UO-31
[48] = test system: HCT-15
[49] = test system: NCI-H23
[50] = test system: LXFL 529
[51] = test system: HOP-92
[52] = test system: RXF 393
[53] = test system: SK-OV-3
[54] = test system: U-251
[55] = test system: A498
[56] = test system: IGROV-1
[57] = test system: KM-20L2
[58] = test system: UACC-62

Compound: Cc1cc([N+](=O)[O-])c(C)c2c1[nH]c1ccc(Cl)cc12
- GI50 [1]: > 100 µM (inactive)
- GI50 [2]: > 100 µM (inactive)
- GI50 [3]: > 100 µM (inactive)
- GI50 [4]: 38.9 µM (inactive)
- GI50 [5]: 23.2 µM (inactive)
- GI50 [6]: 26.4 µM (inactive)
- GI50 [7]: > 100 µM (inactive)
- GI50 [8]: 18.8 µM (inactive)
- GI50 [9]: > 100 µM (inactive)
- GI50 [10]: > 100 µM (inactive)
- GI50 [11]: > 100 µM (inactive)
- GI50 [12]: > 100 µM (inactive)
- GI50 [13]: 63.1 µM (inactive)
- GI50 [14]: > 100 µM (inactive)
- GI50 [15]: 84.7 µM (inactive)
- GI50 [16]: > 100 µM (inactive)
- GI50 [17]: > 100 µM (inactive)
- GI50 [18]: > 100 µM (inactive)
- GI50 [19]: > 100 µM (inactive)
- GI50 [20]: > 100 µM (inactive)
- GI50 [21]: > 100 µM (inactive)
- GI50 [22]: 71.9 µM (inactive)
- GI50 [23]: > 100 µM (inactive)
- GI50 [24]: > 10 µM (inactive)
- GI50 [25]: > 100 µM (inactive)
- GI50 [26]: 71 µM (inactive)
- GI50 [27]: > 100 µM (inactive)
- GI50 [28]: > 100 µM (inactive)
- GI50 [29]: 45.7 µM (inactive)
- GI50 [30]: > 100 µM (inactive)
- GI50 [31]: 50 µM (inactive)
- GI50 [32]: > 100 µM (inactive)
- GI50 [33]: > 100 µM (inactive)
- GI50 [34]: > 100 µM (inactive)
- GI50 [35]: 58.7 µM (inactive)
- GI50 [36]: > 100 µM (inactive)
- GI50 [37]: > 100 µM (inactive)
- GI50 [38]: > 100 µM (inactive)
- GI50 [39]: > 100 µM (inactive)
- GI50 [40]: > 100 µM (inactive)
- GI50 [41]: 23.6 µM (inactive)
- GI50 [42]: > 100 µM (inactive)
- GI50 [43]: > 100 µM (inactive)
- GI50 [44]: > 100 µM (inactive)
- GI50 [45]: > 100 µM (inactive)
- GI50 [46]: 89.5 µM (inactive)
- GI50 [47]: > 100 µM (inactive)
- GI50 [48]: 96.2 µM
- GI50 [49]: > 100 µM (inactive)

Compound: COC(=O)C(C(=O)OC)C1CCCC(=O)C1 (stereo not drawn)
- GI50 [1]: > 100 µM (inactive)
- GI50 [50]: > 100 µM (inactive)
- GI50 [2]: > 100 µM (inactive)
- GI50 [3]: > 100 µM (inactive)
- GI50 [4]: > 100 µM (inactive)
- GI50 [5]: > 100 µM (inactive)
- GI50 [6]: > 100 µM (inactive)
- GI50 [7]: > 100 µM (inactive)
- GI50 [9]: > 100 µM (inactive)
- GI50 [10]: > 100 µM (inactive)
- GI50 [11]: > 100 µM (inactive)
- GI50 [12]: > 100 µM (inactive)
- GI50 [13]: > 100 µM (inactive)
- GI50 [14]: > 100 µM (inactive)
- GI50 [15]: > 100 µM (inactive)
- GI50 [16]: > 100 µM (inactive)
- GI50 [17]: > 100 µM (inactive)
- GI50 [51]: > 100 µM (inactive)
- GI50 [20]: > 100 µM (inactive)
- GI50 [21]: > 100 µM (inactive)
- GI50 [52]: > 100 µM (inactive)
- GI50 [22]: > 100 µM (inactive)
- GI50 [23]: < 0.01 µM (active)
- GI50 [24]: > 100 µM (inactive)
- GI50 [25]: > 100 µM (inactive)
- GI50 [26]: > 100 µM (inactive)
- GI50 [53]: > 100 µM (inactive)
- GI50 [54]: > 100 µM (inactive)
- GI50 [27]: > 100 µM (inactive)
- GI50 [28]: > 100 µM (inactive)
- GI50 [55]: > 100 µM (inactive)
- GI50 [29]: > 100 µM (inactive)
- GI50 [31]: > 100 µM (inactive)
- GI50 [32]: > 100 µM (inactive)
- GI50 [33]: > 100 µM (inactive)
- GI50 [34]: > 100 µM (inactive)
- GI50 [35]: > 100 µM (inactive)
- GI50 [36]: > 100 µM (inactive)
- GI50 [37]: > 100 µM (inactive)
- GI50 [38]: > 100 µM (inactive)
- GI50 [39]: > 100 µM (inactive)
- GI50 [40]: > 100 µM (inactive)
- GI50 [41]: > 100 µM (inactive)
- GI50 [42]: > 100 µM (inactive)
- GI50 [43]: > 100 µM (inactive)
- GI50 [44]: > 100 µM (inactive)
- GI50 [56]: > 100 µM (inactive)
- GI50 [45]: > 100 µM (inactive)
- GI50 [57]: > 100 µM (inactive)
- GI50 [46]: > 100 µM (inactive)
- GI50 [47]: > 100 µM (inactive)
- GI50 [58]: > 100 µM (inactive)
- GI50 [48]: > 100 µM
- GI50 [49]: > 100 µM (inactive)
